Patent publication US4609725A, “Cardiac atrial peptides” (Merck & Co., Inc., priority 1984, dated 1986)

How the values were obtained:
[1] = test system: serotonin contracted rabbit aortae; assay type: cell-based
From the text: (§1) Under the conditions described above, conversion of non-iodinated ANF peptide fragment to the iodinated peptide was approximately 48%, based on the absorbance of the respective HPLC fractions and by amino acid analysis.

[2] = test system: serotonin contracted rat aortae; assay type: cell-based
From the text: as §1

CC[C@H](C)[C@@H]1NC(=O)[C@H](CCCNC(=N)N)NC(=O)[C@H](CC(=O)O)NC(=O)[C@H]([C@@H](C)CC)NC(=O)[C@H](CCCNC(=N)N)NC(=O)CNC(=O)CNC(=O)[C@H](Cc2ccccc2)NC(=O)[C@@H](NC(=O)[C@H](CO)NC(=O)[C@H](CO)NC(=O)[C@H](CCCNC(=N)N)NC(=O)[C@@H](N)CCCNC(=N)N)CSSC[C@@H](C(=O)N[C@@H](CC(N)=O)C(=O)N[C@@H](CO)C(=O)N[C@@H](Cc2ccccc2)C(=O)N[C@@H](CCCNC(=N)N)C(=O)N[C@@H](Cc2ccc(O)c(I)c2)C(=O)O)NC(=O)CNC(=O)[C@H](CC(C)C)NC(=O)CNC(=O)[C@H](CO)NC(=O)[C@H](CCC(N)=O)NC(=O)[C@H](C)NC(=O)CNC1=O [iodinated ANF peptide fragment]
IC50 [1]: 1.65 nM
extent of vasorelaxation ([1]; serotonin contracted rabbit aortae): complete vasorelaxation
IC50 [2]: 1.05 nM
extent of vasorelaxation ([2]; serotonin contracted rat aortae): complete vasorelaxation
